Measured values taken from publication PMC8819291, “Adaptively evolved human oral actinomyces‐sourced defensins show therapeutic potential” (EMBO Molecular Medicine, 2021).
Where a SMILES comes first, the peptide text is derived from it.

Key:
HL‐60 cells = assay: Peptide-induced MCP-1 release (ELISA); type: cell-based, human; conditions: 24 h
Protocol: (§1) A549 and HL‐60 cells were purchased from the Cell Resource Center of the Chinese Academy of Medical Sciences (Beijing, China). They were tested for mycoplasma contamination with the Mycoplasma Detection Kit (Solarbio, China) and only negative cultures were used in our experiments. The cells were cultured in complete Dulbecco’s Modified Eagle Medium (DMEM) supplemented with 10% fetal bovine serum (FBS), penicillin (100 units/ml), and streptomycin ([…]) at 37°C in 5% CO2. The culture medium was changed every 2 days. Cells were passaged every 4–5 days with 0.25% trypsin (Gibco, USA). For enzyme‐linked immunosorbent assay (ELISA) (Hara et al, [2008]), A549 or HL‐60 cells were seeded in six‐well plates at a density of 1 × 10^5 cells/well and were incubated at 37°C in 5% CO2 overnight. Medium was aspirated and replaced with fresh complete DMEM supplemented with 10% FBS or serum‐free medium, both containing different concentrations of polypeptides for 24 h. Then, the supernatants were harvested for quantification of the IL‐8 amount in A549 by the Human CXCL8/IL‐8 Quantikine ELISA Kit (R&D Systems Inc., Minneapolis, MN, USA) and the MCP‐1 amount in HL‐60 by the Human MCP‐1 ELISA Kit (Boster Biological Technology Co., Ltd, Wuhan, China) as per the manufactures’ instructions.

A549 cells = assay: Peptide-induced IL-8 release (ELISA); type: cell-based, human; conditions: 24 h
Protocol: as §1

HL‐60 = assay: Cytotoxicity assay (CCK-8); type: cell-based, human; conditions: 72 h
Protocol: Cells were cultured at 37°C in 5% CO2: 95% air incubator in Minimum Essential Medium (MEM) supplemented with 10% (v/v) fetal bovine serum (FBS). Cells were seeded at a density of 7 × 10^3 cells per well in 96‐well plates and incubated for 24 h. Media were then replaced with 200 μl of media containing various concentrations of peptides. The cells were incubated for 72 h and cytotoxicity was assessed with CCK‐8 Kits (Dojindo Molecular Technologies, Tokyo, Japan). Absorbance was detected at 450 nm with the TECAN Infinite M200 microplate reader (Tecan, Durham, USA).

SP D39 = assay: Mouse lung infection model
Protocol: To this end, ICR female mice (30 g each mouse; 9–10 weeks of age) were anesthetized with 1.25% 2,2,2‐Tribromoethanol (Avertin) (Macklin, Shanghai, China) and hung by their front teeth on a steel wire. Then, they were inoculated intranasally with 10–20 µl bacterial suspension of SP D39 of fresh overnight culture (1.5 × 10^6 CFU per mouse) and then were removed from the wire to their cages. A control group of untreated mice was included. […] Mice were treated with penicillin as a positive control. At 48 h post‐infection, the mice were sacrificed and lungs removed and homogenized in 0.9% saline. Colony counts from lung homogenates were determined and the total number of colonies/lungs per mouse was calculated. Schematic representation is provided in Appendix Fig S16B.

[1] = tested on: BM cells (Bacillus megaterium); assay: Scanning electron microscope observation of cell deformation; type: cell-based; conditions: 10 × C L, 37°C, 90 min
Protocol: After centrifugation, bacterial pellets were fixed with 2.5% glutaraldehyde for 1 h, followed by washing three times with PBS buffer (pH 7.3). Dehydration was carried out with a series of graded ethanol solutions. Cells were then dried by BAL‐TEC CPD‐030 critical point dryer (Bal‐Tec AG, Balzers, Liechtenstein) before being mounted on carbon tape and sputtered with a gold coating (BAL‐TEC SCD005). Images were visualized in FEI QUANTA 450.

[2] = Bioaffinity ESI-MS with UMP; type: binding, Staphylococcus aureus; conditions: 25 mM ammonium acetate (pH5.2)
Protocol: All components for interactions were dissolved in 25 mM ammonium acetate (pH5.2). Electrospray spectra were recorded with Waters SynaptG2‐Si mass spectrometer (Waters, Manchester, UK) and measurements were performed with positive ESI in resolution mode. Ions were scanned in a mass range of 500–2,000 m/z with the following conditions: the capillary voltage at 1,500 V; the cone voltage at 40 V; the source block temperature at 30°C. Spectra were recorded and processed by the software Masslynx4.1 (Waters, Manchester, UK).

MRSA P1374 = assay: Cytoplasmic accumulation of UMP; type: cell-based, Staphylococcus aureus; conditions: 20 × C L, 30 min; RP-HPLC, UV 260 nm
Protocol: To analyze the cytoplasmic nucleotide pool, we carried out the cytoplasmic UMP accumulation experiment according to the literature (Brötz et al, [1997]) with some modifications. MRSA P1374 cells were grown in 40‐ml broth medium at 37°C to an OD600 of 0.5. The culture was supplemented with 130 μg/ml chloramphenicol. […] After 30 min of incubation, UMP was extracted from the harvested cells by stirring them into boiling water. The suspension was then centrifuged (43,000 g, 60 min) at 4°C and the supernatant was lyophilized and dissolved in 400 μl of 50 mM ammonium acetate (pH 5.2) and adjusted to pH 2.0 with acetic acid. After acidification, the supernatant was fractionated by RP‐HPLC on Hypersil ODS (250 × 4.6 mm; Thermo Scientific) and UMP was eluted from the column with a linear gradient from 0 to 40% methanol in 50 mM NH4Ac (pH 5.2) within 40 min with a flow rate of 1 ml/min. UV absorbance was monitored at 260 nm. UMP was identified by ultraperformance liquid chromatography–high resolution mass spectrometry (UPLC‐HRMS) and MALDI‐TOF. Both methods yielded consistent results.

[3] = Circular dichroism spectroscopy with UMP; type: binding; conditions: 50 mM NH4OAc, room temperature
Protocol: The spectra were measured at room temperature from 300 to 200 nm by using a quartz cell of 1.0 mm thickness. Data were collected at 1‐nm intervals with a scan rate of 2 nm/s.

[4] = tested on: fresh erythrocytes from the female ICR mice; assay: Hemolysis assay; type: cell-based, Mus musculus; conditions: 25 μM
Protocol: Hemolytic activity of peptides against fresh erythrocytes from the female ICR mice (Mus musculus) (25 g, 6 weeks of age) was assayed according to the standard method (Zhu et al, [2012]). Peptides were diluted with 0.9% NaCl to the indicated concentration. The percentage of hemolysis is determined as (A pep–A blank)/(A tot–A blank) × 100, in which “A” represents absorbance measured at 570 nm. A blank and A pep were evaluated in the absence or presence of peptides. One hundred percent hemolysis (A tot) was obtained in the presence of 1% Triton X‐100.

[5] = tested on: Streptococcus salivarius ATCC 1.2498; assay: Inhibition-zone-based synergy assay; type: cell-based; conditions: 0.05 nmol/well, without AMSIN
[6] = tested on: Streptococcus sanguinis ATCC 1.2497; assay: Inhibition-zone-based synergy assay; type: cell-based; conditions: 0.05 nmol/well, without AMSIN
[7] = FBS-containing medium, 25 μg/mL, replicate 1
[8] = FBS-containing medium, 25 μg/mL, replicate 2
[9] = FBS-containing medium, 25 μg/mL, replicate 3
[10] = FBS-containing medium, 50 μg/mL, replicate 1
[11] = FBS-containing medium, 50 μg/mL, replicate 2
[12] = FBS-containing medium, 50 μg/mL, replicate 3
[13] = FBS-containing medium, 100 μg/mL, replicate 1
[14] = FBS-containing medium, 100 μg/mL, replicate 2
[15] = FBS-containing medium, 100 μg/mL, replicate 3
[16] = Serum-Free medium, 25 μg/mL, replicate 1
[17] = Serum-Free medium, 25 μg/mL, replicate 2
[18] = Serum-Free medium, 25 μg/mL, replicate 3
[19] = Serum-Free medium, 50 μg/mL, replicate 1
[20] = Serum-Free medium, 50 μg/mL, replicate 2
[21] = Serum-Free medium, 50 μg/mL, replicate 3
[22] = Serum-Free medium, 100 μg/mL, replicate 1
[23] = Serum-Free medium, 100 μg/mL, replicate 2
[24] = Serum-Free medium, 100 μg/mL, replicate 3

## LL-37: the human AMP with immunomodulatory properties, chemically synthesized, positive control [reference compound]
HL‐60 cells; [7]
  MCP-1: 486 pg/mL
HL‐60 cells; [8]
  MCP-1: 414 pg/mL
HL‐60 cells; [9]
  MCP-1: 465 pg/mL
HL‐60 cells; [10]
  MCP-1: 538 pg/mL
HL‐60 cells; [11]
  MCP-1: 514 pg/mL
HL‐60 cells; [12]
  MCP-1: 517 pg/mL
HL‐60 cells; [13]
  MCP-1: 545 pg/mL
HL‐60 cells; [14]
  MCP-1: 571 pg/mL
HL‐60 cells; [15]
  MCP-1: 524 pg/mL
HL‐60 cells; [16]
  MCP-1: 431 pg/mL
HL‐60 cells; [17]
  MCP-1: 519 pg/mL
HL‐60 cells; [18]
  MCP-1: 410 pg/mL
HL‐60 cells; [19]
  MCP-1: 583 pg/mL
HL‐60 cells; [20]
  MCP-1: 543 pg/mL
HL‐60 cells; [21]
  MCP-1: 562 pg/mL
HL‐60 cells; [22]
  MCP-1: 459 pg/mL
HL‐60 cells; [23]
  MCP-1: 565 pg/mL
HL‐60 cells; [24]
  MCP-1: 438 pg/mL
A549 cells; [7]
  IL-8: 172 pg/mL
A549 cells; [8]
  IL-8: 166 pg/mL
A549 cells; [9]
  IL-8: 172 pg/mL
A549 cells; [10]
  IL-8: 156 pg/mL
A549 cells; [11]
  IL-8: 129 pg/mL
A549 cells; [12]
  IL-8: 155 pg/mL
A549 cells; [13]
  IL-8: 173 pg/mL
A549 cells; [14]
  IL-8: 195 pg/mL
A549 cells; [15]
  IL-8: 192 pg/mL
A549 cells; [16]
  IL-8: 57 pg/mL
A549 cells; [17]
  IL-8: 41 pg/mL
A549 cells; [18]
  IL-8: 47 pg/mL
A549 cells; [19]
  IL-8: 66 pg/mL
A549 cells; [20]
  IL-8: 57 pg/mL
A549 cells; [21]
  IL-8: 78 pg/mL
A549 cells; [22]
  IL-8: 133 pg/mL
A549 cells; [23]
  IL-8: 122 pg/mL
A549 cells; [24]
  IL-8: 116 pg/mL
HL‐60; 25 μg/mL, replicate 1
  Cellular variability of HL-60 (%): 95%
HL‐60; 25 μg/mL, replicate 2
  Cellular variability of HL-60 (%): 96%
HL‐60; 25 μg/mL, replicate 3
  Cellular variability of HL-60 (%): 103%
HL‐60; 50 μg/mL, replicate 1
  Cellular variability of HL-60 (%): 57%
HL‐60; 50 μg/mL, replicate 2
  Cellular variability of HL-60 (%): 56%
HL‐60; 50 μg/mL, replicate 3
  Cellular variability of HL-60 (%): 64%
HL‐60; 100 μg/mL, replicate 1
  Cellular variability of HL-60 (%): 25%
HL‐60; 100 μg/mL, replicate 2
  Cellular variability of HL-60 (%): 25%
HL‐60; 100 μg/mL, replicate 3
  Cellular variability of HL-60 (%): 26%

## penicillin [reference compound]
SP D39; 8.35 mg/kg i.m. 24 h after intranasal SP D39, lungs at 48 h post‐infection, animal 1
  Log10 (CFU per lung): 3.6 Log10 (CFU per lung)
SP D39; 8.35 mg/kg i.m., animal 2
  Log10 (CFU per lung): 4.3 Log10 (CFU per lung)
SP D39; 8.35 mg/kg i.m., animal 3
  Log10 (CFU per lung): 3.23 Log10 (CFU per lung)
SP D39; 8.35 mg/kg i.m., animal 4
  Log10 (CFU per lung): 3.28 Log10 (CFU per lung)
SP D39; 8.35 mg/kg i.m., animal 5
  Log10 (CFU per lung): 3.3 Log10 (CFU per lung)
SP D39; 16.7 mg/kg i.m., animal 1
  Log10 (CFU per lung): 1.3 Log10 (CFU per lung)
SP D39; 16.7 mg/kg i.m., animal 2
  Log10 (CFU per lung): 1.48 Log10 (CFU per lung)
SP D39; 16.7 mg/kg i.m., animal 3
  Log10 (CFU per lung): 1.3 Log10 (CFU per lung)
SP D39; 16.7 mg/kg i.m., animal 4
  Log10 (CFU per lung): 4.2 Log10 (CFU per lung)
SP D39; 16.7 mg/kg i.m., animal 5
  Log10 (CFU per lung): 4.68 Log10 (CFU per lung)
SP D39; 30 mg/kg i.m., animal 1
  Log10 (CFU per lung): 3 Log10 (CFU per lung)
SP D39; 30 mg/kg i.m., animal 2
  Log10 (CFU per lung): 1 Log10 (CFU per lung)
SP D39; 30 mg/kg i.m., animal 3
  Log10 (CFU per lung): 2.63 Log10 (CFU per lung)
SP D39; 30 mg/kg i.m., animal 4
  Log10 (CFU per lung): 1 Log10 (CFU per lung)
SP D39; 30 mg/kg i.m., animal 5
  Log10 (CFU per lung): 1 Log10 (CFU per lung)

## CN[C@H](CC(C)C)C(=O)N[C@H]1C(=O)N[C@@H](CC(N)=O)C(=O)N[C@H]2C(=O)N[C@H]3C(=O)N[C@H](C(=O)N[C@H](C(=O)O)c4cc(O)cc(O)c4-c4cc3ccc4O)[C@H](O)c3ccc(c(Cl)c3)Oc3cc2cc(c3O[C@@H]2O[C@H](CO)[C@@H](O)[C@H](O)[C@H]2O[C@H]2C[C@](C)(N)[C@H](O)[C@H](C)O2)Oc2ccc(cc2Cl)[C@H]1O [vancomycin, reference compound]
[1]
  Cell shape by scanning electron microscopy: deformation of the cell shape
[2]
  Non-covalent complex with UMP by ESI-MS: complex formation
MRSA P1374
  Cytoplasmic accumulation of UMP: accumulated
[3]
  Complex with UMP by CD absorption signatures: a complex was formed

## CC[C@H](C)[C@H](NC(=O)[C@H](CCCCN)NC(=O)[C@@H](NC(=O)[C@H](C)NC(=O)[C@H](CC(C)C)NC(=O)[C@H](CCCCN)NC(=O)[C@H](Cc1ccccc1)NC(=O)[C@H](CC(C)C)NC(=O)[C@H](Cc1cnc[nH]1)NC(=O)CNC(=O)[C@H](Cc1ccccc1)NC(=O)[C@@H](N)Cc1ccccc1)[C@@H](C)O)C(=O)N[C@H](C(=O)N1CCC[C@H]1C(=O)N[C@@H](CO)C(=O)N[C@@H](CC(C)C)C(=O)N[C@@H](Cc1ccccc1)C(=O)N[C@@H](CCC(N)=O)C(=O)O)[C@@H](C)CC [Meucin-18, reference compound] (H-FFGHLFKLATKIIPSLFQ-OH)
[4]; technical replicate 1
  Hemolysis (%): 91.54%
[4]; technical replicate 2
  Hemolysis (%): 95.84%
[4]; technical replicate 3
  Hemolysis (%): 92.43%

## drosomycin: a specific antifungal defensin (DCLSGRYKGPCAVWDNETCRRVCKEEGRSSGHCSPSLKCWCEGC; UniProt P41964 27-70, looked up)
[2]
  Non-covalent complex with UMP by ESI-MS: not

B1: hLZc: lysozyme C isolated from human saliva (protein)
chain: KVFERCELARTLKRLGMDGYRGISLANWMCLAKWESGYNTRATNYNAGDRSTDYGIFQINSRYWCNDGKTPGAVNACHLSCSALLQDNIADAVACAKRVVRDPQGIRAWVAWRNRCQNRDVRQYVQGCGV
[5]
  Inhibition zone of the factor alone: no visible inhibition zones
[6]
  Inhibition zone of the factor alone: no visible inhibition zones
